{"source": "patent US20160289186A1", "about": "“FLUOROMETHYL-SUBSTITUTED PYRROLE CA[…]” (Grunenthal GmbH, priority 2013, published 2016)", "data": [{"target": "T1, Human CaV2.2 channels (Homo sapiens, UniProt Q00975)", "T1 construct": "expressed in transfected cells; host or cells: HEK293", "T1 sequence (Q00975 whole entry)": "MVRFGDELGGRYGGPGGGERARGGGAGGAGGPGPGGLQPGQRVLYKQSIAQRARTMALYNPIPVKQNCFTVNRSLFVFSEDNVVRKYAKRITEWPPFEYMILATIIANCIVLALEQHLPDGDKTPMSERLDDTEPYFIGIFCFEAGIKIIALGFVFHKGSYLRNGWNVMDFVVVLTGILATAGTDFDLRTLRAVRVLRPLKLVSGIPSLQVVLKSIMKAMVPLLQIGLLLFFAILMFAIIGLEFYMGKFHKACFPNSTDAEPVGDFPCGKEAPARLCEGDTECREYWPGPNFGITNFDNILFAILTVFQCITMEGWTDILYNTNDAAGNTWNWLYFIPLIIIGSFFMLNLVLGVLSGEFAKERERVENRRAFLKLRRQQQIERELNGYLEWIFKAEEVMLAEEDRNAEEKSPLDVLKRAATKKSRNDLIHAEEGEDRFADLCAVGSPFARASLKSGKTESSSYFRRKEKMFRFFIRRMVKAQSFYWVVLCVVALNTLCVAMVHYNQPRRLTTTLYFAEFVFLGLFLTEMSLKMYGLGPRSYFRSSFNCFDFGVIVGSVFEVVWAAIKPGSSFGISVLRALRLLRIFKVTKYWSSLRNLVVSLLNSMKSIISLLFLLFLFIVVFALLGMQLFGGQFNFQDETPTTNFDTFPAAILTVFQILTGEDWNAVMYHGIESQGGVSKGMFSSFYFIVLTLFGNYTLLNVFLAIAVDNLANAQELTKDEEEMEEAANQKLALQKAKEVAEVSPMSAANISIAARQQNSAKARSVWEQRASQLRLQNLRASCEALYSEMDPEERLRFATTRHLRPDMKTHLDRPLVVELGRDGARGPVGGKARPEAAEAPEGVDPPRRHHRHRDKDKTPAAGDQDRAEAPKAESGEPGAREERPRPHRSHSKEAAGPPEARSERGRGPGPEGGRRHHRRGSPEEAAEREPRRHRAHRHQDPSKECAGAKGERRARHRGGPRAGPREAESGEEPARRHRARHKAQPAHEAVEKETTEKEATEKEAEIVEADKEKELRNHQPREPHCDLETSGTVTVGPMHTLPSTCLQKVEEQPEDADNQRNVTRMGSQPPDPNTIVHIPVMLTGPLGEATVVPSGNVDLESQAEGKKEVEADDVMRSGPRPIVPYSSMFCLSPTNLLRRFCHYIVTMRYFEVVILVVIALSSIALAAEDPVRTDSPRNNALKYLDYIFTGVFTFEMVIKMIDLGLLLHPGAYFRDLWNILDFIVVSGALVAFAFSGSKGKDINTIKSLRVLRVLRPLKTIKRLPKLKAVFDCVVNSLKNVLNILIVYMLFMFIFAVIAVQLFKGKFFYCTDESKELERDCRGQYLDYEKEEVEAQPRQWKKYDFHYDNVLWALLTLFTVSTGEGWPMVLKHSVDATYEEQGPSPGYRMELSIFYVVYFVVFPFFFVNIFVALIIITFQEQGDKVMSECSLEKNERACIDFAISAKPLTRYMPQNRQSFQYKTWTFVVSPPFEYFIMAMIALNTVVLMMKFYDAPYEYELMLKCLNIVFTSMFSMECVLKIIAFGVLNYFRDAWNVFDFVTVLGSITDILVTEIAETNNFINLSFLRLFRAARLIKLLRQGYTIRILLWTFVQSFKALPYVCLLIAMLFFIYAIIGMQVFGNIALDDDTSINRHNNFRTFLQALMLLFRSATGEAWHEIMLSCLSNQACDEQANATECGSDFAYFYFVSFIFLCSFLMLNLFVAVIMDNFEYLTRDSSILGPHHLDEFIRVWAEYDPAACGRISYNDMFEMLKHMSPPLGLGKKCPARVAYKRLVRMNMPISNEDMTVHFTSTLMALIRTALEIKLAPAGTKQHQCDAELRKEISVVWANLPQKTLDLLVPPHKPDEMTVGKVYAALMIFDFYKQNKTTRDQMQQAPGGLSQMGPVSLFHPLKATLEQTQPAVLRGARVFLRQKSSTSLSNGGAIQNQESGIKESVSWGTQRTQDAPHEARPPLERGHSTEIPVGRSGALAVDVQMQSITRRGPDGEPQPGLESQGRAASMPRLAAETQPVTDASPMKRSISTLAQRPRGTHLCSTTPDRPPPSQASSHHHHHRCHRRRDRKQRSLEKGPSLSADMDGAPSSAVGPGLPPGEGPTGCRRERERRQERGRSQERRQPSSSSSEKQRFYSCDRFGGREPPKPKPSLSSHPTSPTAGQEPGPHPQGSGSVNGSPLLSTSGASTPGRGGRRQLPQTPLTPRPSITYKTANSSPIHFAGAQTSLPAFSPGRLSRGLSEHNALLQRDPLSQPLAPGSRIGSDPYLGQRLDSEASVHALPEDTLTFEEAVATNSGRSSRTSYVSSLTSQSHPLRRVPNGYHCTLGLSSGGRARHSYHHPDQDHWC", "T1 sequence (P54284 whole entry, further chain)": "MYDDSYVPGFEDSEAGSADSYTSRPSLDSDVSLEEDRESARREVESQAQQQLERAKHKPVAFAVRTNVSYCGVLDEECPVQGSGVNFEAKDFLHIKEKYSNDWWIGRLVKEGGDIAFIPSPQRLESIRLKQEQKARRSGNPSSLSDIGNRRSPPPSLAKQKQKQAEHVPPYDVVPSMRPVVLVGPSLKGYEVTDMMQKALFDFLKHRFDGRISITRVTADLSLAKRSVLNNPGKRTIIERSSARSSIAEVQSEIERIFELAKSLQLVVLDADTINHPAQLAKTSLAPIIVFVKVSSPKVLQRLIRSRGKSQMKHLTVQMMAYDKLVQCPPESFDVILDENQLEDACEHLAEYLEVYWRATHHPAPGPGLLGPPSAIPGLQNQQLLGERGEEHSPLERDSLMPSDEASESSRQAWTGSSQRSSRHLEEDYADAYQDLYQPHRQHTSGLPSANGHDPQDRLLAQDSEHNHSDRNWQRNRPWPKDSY", "T1 sequence (P54289 25-1103, further chain)": "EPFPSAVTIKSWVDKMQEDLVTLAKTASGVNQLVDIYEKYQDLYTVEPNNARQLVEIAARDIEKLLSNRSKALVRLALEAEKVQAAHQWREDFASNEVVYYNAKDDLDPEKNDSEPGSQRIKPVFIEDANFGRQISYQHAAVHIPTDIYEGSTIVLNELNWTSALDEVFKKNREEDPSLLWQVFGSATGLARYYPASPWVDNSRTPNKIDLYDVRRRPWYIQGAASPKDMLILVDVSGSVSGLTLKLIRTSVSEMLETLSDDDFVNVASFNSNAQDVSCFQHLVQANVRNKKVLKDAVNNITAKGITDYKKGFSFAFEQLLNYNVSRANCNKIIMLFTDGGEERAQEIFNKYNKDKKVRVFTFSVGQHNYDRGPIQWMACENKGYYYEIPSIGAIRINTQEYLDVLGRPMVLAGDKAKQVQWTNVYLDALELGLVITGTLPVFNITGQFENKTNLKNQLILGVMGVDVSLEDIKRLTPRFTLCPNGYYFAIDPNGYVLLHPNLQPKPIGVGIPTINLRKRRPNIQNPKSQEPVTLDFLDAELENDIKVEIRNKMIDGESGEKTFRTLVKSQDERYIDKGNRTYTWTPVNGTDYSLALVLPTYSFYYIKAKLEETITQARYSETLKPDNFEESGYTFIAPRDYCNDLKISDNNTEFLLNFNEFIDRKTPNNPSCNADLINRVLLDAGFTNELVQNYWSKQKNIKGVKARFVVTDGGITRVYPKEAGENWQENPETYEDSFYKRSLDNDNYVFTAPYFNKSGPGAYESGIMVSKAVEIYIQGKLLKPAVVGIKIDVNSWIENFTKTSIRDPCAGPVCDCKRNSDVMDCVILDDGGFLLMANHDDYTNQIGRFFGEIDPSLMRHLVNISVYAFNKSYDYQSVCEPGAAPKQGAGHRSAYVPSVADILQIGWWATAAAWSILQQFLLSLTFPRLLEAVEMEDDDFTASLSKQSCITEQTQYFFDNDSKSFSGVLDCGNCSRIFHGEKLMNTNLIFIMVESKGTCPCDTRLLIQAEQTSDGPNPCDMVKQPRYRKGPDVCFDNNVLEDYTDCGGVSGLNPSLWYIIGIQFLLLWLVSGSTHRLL", "assay": "Fluorescent (FLIPR) assay for CaV2.2 channels using potassium depolarization to induce channel opening", "format": "cell-based", "conditions": "3 μM compound; 30 mM KCl assay buffer (inactivated channel state); HEK293 cells stably expressing human CaV2.2; read-out: Activity Category: %-Inhib (CaV2.2) @3 μM @30 mM KCl", "from_the_text": "In the process, the Ca^2+ influx is quantified in the FLIPR assay with the aid of a Ca^2+-sensitive dye (type Fluo-4, Molecular Probes Europe BV, Leiden, the Netherlands) in a fluorescent imaging plate reader (FLIPR 3, Molecular Devices, Sunnyvale, USA), as described hereinafter.\nHuman CaV2.2 channels were stably expressed in HEK293 cells together with alpha2-delta and beta subunits of voltage gated calcium channels. In addition, an inwardly rectifying potassium channel (Kir2.3) was stably expressed in these cells to augment control of the cell membrane potential by the concentration of extracellular potassium ions. Raise of the extracellular potassium concentration leads to depolarization of the membrane potential and thus regulates the voltage dependent state of CaV2.2 channels. For preparation, cells were seeded in black poly-D-lysine coated 96-well plates (Becton Dickinson, Biocoat 4640) in 100 μL medium [500 mL DMEM/F-12 plus Glutamax (Invitrogen 31331-093) plus 5.5 mL MEM NEAA 100× (Invitrogen 11140-035) plus 50 mL FBS decomplemented (Invitrogen 10270-106) plus 200 μg/mL Geneticin (Invitrogen 10131-027) plus 50 μg/mL Hygromycin B (Invitrogen 10687-010) plus 2 μg/mL Blasticidin (anti-bl5b Invivo-Gen) plus 0.2 μg/mL Puromycin (A 11138-03)] at a cell density of 30.000 cells per well. Plates were incubated at 37° C. (5% CO2) for 20 to 23 h. On the day of experiment medium was discarded and cells were loaded with Fluo 4 by addition of 100 μL of basic assay buffer (10 mM HEPES, 1 mM KCl, 149 mM NaCl, 0.8 mM CaCl2, 1.7 mM MgCl2, 10 mM Glucose, 0.1% BSA. pH 7.4) containing 2 μM Fluo 4 (Molecular Probes; F-14201), 0.01% pluronic acid (Molecular Probes; P-6866) and 2.5 mM probenecid (Molecular Probes; P36400). Cells were incubated in the dark at 25° C. for 60 min. Then dye containing buffer was discarded and 100 μL basic (1 mM KCl) or alternative (30 mM KCl) assay buffer was added. The alternative assay buffer contained altered concentrations of KCl (30 mM) and NaCl (120 mM) and was used in order to promote the inactivated channel state. After that 25 μL of basic or alternative assay buffer with or without test compound were added and cells were incubated again in the dark at 25° C. for 15 min. Fluorescence intensity was measured on a FLIPR 3 instrument (Molecular Devices Corp., Sunnyvale, Calif.) with excitation at 480 nm and emission at 535 nm. After continuously reading fluorescence for 30 sec, 50 μL of basic assay buffer containing 210 mM KCl (NaCl omitted) were added for depolarization. Peak fluorescent signal intensity was determined and the amplitude of the peak signal, normalized to base line, was used to measure channel inhibition by test compounds.", "units": {"inhibition at 3 µM": "%"}, "values": [{"smiles": "Cc1c(-c2ccc(Cl)cc2)c(C(=O)N(C)CC(C)(C)CO)n(CC(C)C)c1C(F)(F)F", "note": "[Example 055, 3-(4-Chlorophenyl)-N-(3-hydroxy-2,2-dimethyl-propyl)-N,4-dimethyl-1-(2-methyl-propyl)-5-(trifluoromethyl)-1H-pyrrole-2-carboxylic acid amide]", "inhibition at 3 µM": "> 95"}, {"smiles": "Cc1c(-c2ncc(Cl)cn2)c(C(=O)N(C)CC(C)(C)C#N)n(C(C)C)c1C(F)(F)F", "note": "[Example 126, 3-(5-Chloro-pyrimidin-2-yl)-N-(2-cyano-2-methyl-propyl)-1-isopropyl-N,4-dimethyl-5-(trifluoromethyl)-1H-pyrrole-2-carboxylic acid amide]", "inhibition at 3 µM": "40 to 75"}, {"smiles": "Cc1c(-c2ccc(Cl)cn2)c(C(=O)N(C)CC(C)(C)C#N)n(C(C)C)c1C(F)(F)F", "note": "[Example 117, 3-(5-Chloro-pyridin-2-yl)-N-(2-cyano-2-methyl-propyl)-1-isopropyl-N,4-dimethyl-5-(trifluoromethyl)-1H-pyrrole-2-carboxylic acid amide]", "inhibition at 3 µM": "75 to 95"}, {"smiles": "Cc1c(-c2ccc(Cl)cc2)c(C(=O)N2CCOCC2)n(CC#CC2CC2)c1C(F)(F)F", "note": "[Example 086, [3-(4-Chlorophenyl)-1-(3-cyclopropyl-prop-2-ynyl)-4-methyl-5-(trifluoromethyl)-1H-pyrrol-2-yl]-morpholin-4-yl-methanone]", "inhibition at 3 µM": "> 95"}, {"smiles": "Cc1noc(C2CCN(C(=O)c3c(-c4ccc(Cl)cc4)c(C)c(C(F)(F)F)n3C3CC3)CC2)n1", "note": "[Example 027, [3-(4-Chlorophenyl)-1-cyclopropyl-4-methyl-5-(trifluoromethyl)-1H-pyrrol-2-yl]-[4-(3-methyl-[1,2,4]oxadiazol-5-yl)-piperidin-1-yl]-methanone]", "inhibition at 3 µM": "75 to 95"}, {"smiles": "Cc1noc(C2CCN(C(=O)c3c(-c4ccc(Cl)cc4)cc(C(F)(F)F)n3C3CC3)CC2)n1", "note": "[Example 029, [3-(4-Chlorophenyl)-1-cyclopropyl-5-(trifluoromethyl)-1H-pyrrol-2-yl]-[4-(3-methyl-[1,2,4]oxadiazol-5-yl)-piperidin-1-yl]-methanone]", "inhibition at 3 µM": "75 to 95"}, {"smiles": "Cc1cc(CN(C)C(=O)c2c(-c3ccc(Cl)cc3F)c(C)c(C(F)(F)F)n2C2CC2)no1", "note": "[Example 020, 3-(4-Chloro-2-fluoro-phenyl)-1-cyclopropyl-N,4-dimethyl-N-[(5-methyl-isoxazol-3-yl)-methyl]-5-(trifluoromethyl)-1H-pyrrole-2-carboxylic acid amide]", "inhibition at 3 µM": "> 95"}, {"smiles": "Cc1cc(CN(C)C(=O)c2c(-c3ccc(Cl)cc3)c(C)c(C(F)(F)F)n2C(C)C)no1", "note": "[Example 107, 3-(4-Chlorophenyl)-1-isopropyl-N,4-dimethyl-N-[(5-methyl-isoxazol-3-yl)-methyl]-5-(trifluoromethyl)-1H-pyrrole-2-carboxylic acid amide]", "inhibition at 3 µM": "> 95"}, {"smiles": "Cc1cc(CN(C)C(=O)c2c(-c3ccc(Cl)cc3)c(C)c(C(F)(F)F)n2CC(C)C)no1", "note": "[Example 057, 3-(4-Chlorophenyl)-N,4-dimethyl-N-[(5-methyl-isoxazol-3-yl)-methyl]-1-(2-methyl-propyl)-5-(trifluoromethyl)-1H-pyrrole-2-carboxylic acid amide]", "inhibition at 3 µM": "> 95"}, {"smiles": "O=C(NC1CC1)c1c(-c2ccc(F)cc2)cc(C(F)(F)F)n1CC1CCCO1", "note": "(stereo not drawn) [Example 082, N-Cyclopropyl-3-(4-fluorophenyl)-1-(tetrahydro-furan-2-yl-methyl)-5-(trifluoromethyl)-1H-pyrrole-2-carboxylic acid amide]", "inhibition at 3 µM": "40 to 75"}, {"smiles": "Cc1c(-c2ccc(Cl)cc2)c(C(=O)N(C)C(CO)CC(C)C)n(C(C)C)c1C(F)(F)F", "note": "(stereo not drawn) [Example 132, 3-(4-Chlorophenyl)-N-[1-(hydroxymethyl)-3-methyl-butyl]-1-isopropyl-N,4-dimethyl-5-(trifluoromethyl)-1H-pyrrole-2-carboxylic acid amide]", "inhibition at 3 µM": "40 to 75"}, {"smiles": "Cc1c(-c2ccc(Cl)cc2)c(C(=O)N(C)C(C)C)n(C(C)C)c1C(F)(F)F", "note": "[Example 108, 3-(4-Chlorophenyl)-N,1-diisopropyl-N,4-dimethyl-5-(trifluoromethyl)-1H-pyrrole-2-carboxylic acid amide]", "inhibition at 3 µM": "> 95"}, {"smiles": "Cc1c(-c2ccc(Cl)cn2)c(C(=O)N(C)CC(C)(C)C(N)=O)n(C(C)C)c1C(F)(F)F", "note": "[Example 116, N-(2-Carbamoyl-2-methyl-propyl)-3-(5-chloro-pyridin-2-yl)-1-isopropyl-N,4-dimethyl-5-(trifluoromethyl)-1H-pyrrole-2-carboxylic acid amide]", "inhibition at 3 µM": "40 to 75"}, {"smiles": "CC1(C)CN(C(=O)c2c(-c3ccc(F)cc3)cc(C(F)(F)F)n2CC2CCCO2)CCO1", "note": "(stereo not drawn) [Example 080, (2,2-Dimethyl-morpholin-4-yl)-[3-(4-fluorophenyl)-1-(tetrahydro-furan-2-yl-methyl)-5-(trifluoromethyl)-1H-pyrrol-2-yl]-methanone]", "inhibition at 3 µM": "75 to 95"}, {"smiles": "CN(CC(C)(C)C)C(=O)c1c(-c2ccc(Cl)cc2)cc(C(F)(F)F)n1CC1(C#N)CC1", "note": "[Example 100, 3-(4-Chlorophenyl)-1-[(1-cyano-cyclopropyl)-methyl]-N-(2,2-dimethyl-propyl)-N-methyl-5-(trifluoromethyl)-1H-pyrrole-2-carboxylic acid amide]", "inhibition at 3 µM": "75 to 95"}, {"smiles": "Cc1c(-c2ccc(Cl)cc2)c(C(=O)N2CCOCC2)n(CC2(O)CC2)c1C(F)(F)F", "note": "[Example 089, [3-(4-Chlorophenyl)-1-[(1-hydroxy-cyclopropyl)-methyl]-4-methyl-5-(trifluoromethyl)-1H-pyrrol-2-yl]-morpholin-4-yl-methanone]", "inhibition at 3 µM": "> 95"}, {"smiles": "CC(C)Cn1c(C(F)(F)F)cc(-c2ccc(F)cc2)c1C(=O)N(C)CC(C)(C)CO", "note": "[Example 056, 3-(4-Fluorophenyl)-N-(3-hydroxy-2,2-dimethyl-propyl)-N-methyl-1-(2-methyl-propyl)-5-(trifluoromethyl)-1H-pyrrole-2-carboxylic acid amide]", "inhibition at 3 µM": "75 to 95"}, {"smiles": "CN(C(=O)c1c(-c2ccc(F)cc2)cc(C(F)(F)F)n1CC1CCCO1)C1CCOCC1", "note": "(stereo not drawn) [Example 070, 3-(4-Fluorophenyl)-N-methyl-1-(tetrahydro-furan-2-yl-methyl)-N-tetrahydro-pyran-4-yl-5-(trifluoromethyl)-1H-pyrrole-2-carboxylic acid amide]", "inhibition at 3 µM": "75 to 95"}, {"smiles": "CN(CC(C)(C)O)C(=O)c1c(-c2ccc(Cl)cc2)cc(C(F)(F)F)n1C1CC1", "note": "[Example 019, 3-(4-Chlorophenyl)-1-cyclopropyl-N-(2-hydroxy-2-methyl-propyl)-N-methyl-5-(trifluoromethyl)-1H-pyrrole-2-carboxylic acid amide]", "inhibition at 3 µM": "40 to 75"}, {"smiles": "Cc1c(-c2ccc(Cl)cc2)c(C(=O)N(C)CC(C)(C)C(N)=O)n(C2CC2)c1C(F)(F)F", "note": "[Example 009, N-(2-Carbamoyl-2-methyl-propyl)-3-(4-chlorophenyl)-1-cyclopropyl-N,4-dimethyl-5-(trifluoromethyl)-1H-pyrrole-2-carboxylic acid amide]", "inhibition at 3 µM": "75 to 95"}, {"smiles": "Cc1c(-c2ccc(Cl)cc2)c(C(=O)N(C)C2(C(N)=O)CC2)n(CC(C)C)c1C(F)(F)F", "note": "[Example 051, N-(1-Carbamoyl-cyclopropyl)-3-(4-chlorophenyl)-N,4-dimethyl-1-(2-methyl-propyl)-5-(trifluoromethyl)-1H-pyrrole-2-carboxylic acid amide]", "inhibition at 3 µM": "> 95"}, {"smiles": "Cc1c(-c2ccc(Cl)cc2)c(C(=O)N(Cc2ccccc2)CC(C)(C)C)n(C)c1C(F)(F)F", "note": "[Example 003, N-Benzyl-3-(4-chlorophenyl)-N-(2,2-dimethyl-propyl)-1,4-dimethyl-5-(trifluoromethyl)-1H-pyrrole-2-carboxylic acid amide]", "inhibition at 3 µM": "40 to 75"}, {"smiles": "Cc1c(-c2ccc(Cl)cc2)c(C(=O)N(C)CCS(C)(=O)=O)n(CC2(N)CC2)c1C(F)(F)F", "note": "[Example 093, 1-[(1-Amino-cyclopropyl)-methyl]-3-(4-chlorophenyl)-N,4-dimethyl-N-(2-methylsulfonyl-ethyl)-5-(trifluoromethyl)-1H-pyrrole-2-carboxylic acid amide]", "inhibition at 3 µM": "75 to 95"}, {"smiles": "CC1(C)CN(C(=O)c2c(-c3ccc(Cl)cc3)cc(C(F)(F)F)n2C2CC2)CCO1", "note": "[Example 034, [3-(4-Chlorophenyl)-1-cyclopropyl-5-(trifluoromethyl)-1H-pyrrol-2-yl]-(2,2-dimethyl-morpholin-4-yl)-methanone]", "inhibition at 3 µM": "75 to 95"}]}]}
